One data set deals with 3T3 cells. In words: Cytotoxicity in 3T3 cells (XTT kit). In kind it is cell-based. To be noted: DMSO 10% control; 48 hr; single well of triplicate. Here is the method: 3T3 cells (ATCC; CRL-1658) were seeded in a 96 well plate (4×10^3 cells per well), and 24 hr following cell adherence, cells were treated (in triplicate) with different concentrations (1-50 mg/ml) of the test items, or with the control items cottonseed oil alone, or 10% DMSO, or were left untreated. All treatments were introduced in a final volume of […] within a total volume of 100 μl/well. Cytotoxicity was determined 48 hr after additional of test items, using the XTT kit (Biological industries, Israel). Raw data was analyzed using Prism4 statistical software following blank reduction. The cottonseed oil vehicle treated control was used to calculate 100% viability and OD % was calculated.

The next data set has as its system ARPE-19 cells. In words: Neuronal-like differentiation of ARPE-19 retinal pigment epithelial cell cultures. As to conditions: 2-10% w/w in cottonseed oil, compared to vehicle control. It is filed as cell-based, human. The procedure: ARPE-19 cells (obtained from the American Type Culture Collection, ATCC) were plated in flat bottom 96 well tissue culture microplates (Costar) at a concentration of 2-5×10^3 cells per well (1-2.5×10^4 cells/mL) in a growth medium consisting of DMEM:Ham F-12, 1:1, supplemented with 10% Fetal Bovine Serum, […] glutamine, 100 units/mL penicillin and 100 μg/mL streptomycin. The cells were allowed to adhere to the plate surfaces overnight prior to treatment with either RPh-CY or RPh-SA.
RPh-CY and RPh-SA were prepared essentially as described in Examples 2 and 4 respectively, to provide 10% solutions in a carrier composed of grape seed oil, olive oil, cottonseed oil, and Mygliol® (Mygliol® 810 or Mygliol® 812). […]
The cultures were incubated in a 37° C., 5% CO2 incubator for 48 hr. The medium was then removed, the cultures washed twice with phosphate buffered saline (PBS), fixed with absolute methanol for 10 min and stained with Hemacolor® reagents (Boehringer Mannheim), which stain cells in a manner similar to Giemsa, and may be used in a quantitative cell viability assay (see Keisari, Y. A colorimetric microtiter assay for the quantitation of cytokine activity on adherent cells in tissue culture. J. Immunol. Methods 146, 155-161, 1992). […]

Several values for one entry are separate records, joined by “and”; a condition that tells them apart may be missing. Equal entries are not always repeated.

For the compound `C[S+](C)[O-]` [DMSO], in the data set on 3T3 cells, the “OD at 450 (XTT)” value is 0.238 and 0.233 and 0.234.

Turning to `CC(C)c1c(O)ccc2c1CC[C@H]1C(C)(C)CCC[C@]21C` [totarol], in the data set on ARPE-19 cells, the “change in ARPE-19 RPE cells (neurodifferentiation assay)” value is reported as “induced no change”.

The record behind these values is patent publication US20150246087A1, “EXTRACTS AND THERAPEUTIC USES THEREOF” (REGENERA PHARMA LTD., priority 2012, published 2015).
